Measured values published in patent US11203601B2, “Tricyclic compounds as glycogen synthase kinase 3 (GSK3) inhibitors and uses thereof” (The Broad Institute, Inc., priority 2017, dated 2021).
Values after ≈ are worked out from the molar mass of the structure shown. Like-named read-outs stand apart in the source and are kept apart here.

Columns and labels:
MDR1 = assay: Additional MDCK permeability (MDR1-MDCK) assay (Example 6); assay type: in vitro ADME; conditions: dog
Text: The MDR1/MDCK assay is run at Absorption Systems. This assay is used to determine the blood-brain barrier (BBB) penetration potential of a test compound using MDR1-MDCK cell monolayers.
Assay System • Confluent monolayers of MDR1-MDCK cells, 7 to 11 days old. Assay Conditions • Receiver well with 1% BSA in modified Hanks buffer (HBSSg) • Apical and basolateral side at pH 7.4 • Dose two monolayers in each direction (N=2) • Dose apical side for (A to B) assessment • Dose basolateral side for (B to A) assessment • Sample both apical and basolateral sides at 120 minutes • Determine the concentrations of test compound using a generic LC-MS/MS method with a minimum 4 point calibration curve. Assay QC • The quality of the cell monolayer batch is verified using control compounds before monolayers are released for use • The quality of each monolayer used in the assay is verified by a TEER measurement and by calculating the Papp for a control compound.

GSK3β = GSK3β (Homo sapiens (Human), UniProt P49841); assay: GSK3 beta biochemical assay (TR-FRET); conditions: GSK3β TR-FRET BIOCHEMICAL (TR-FRET) GMean IC50, 2 μM ATP (Km), 100 min at room temperature
Procedure: (§6) 1 nM enzyme, 200 nM biotinylated peptide
(§7) 4 μM ATP (GSK3 alpha) or 2 μM ATP (GSK3 beta)
(§8) The reaction volume is 10 μL, and the final percent DMSO is 1%. The total volume of DMSO is therefore 100 nL. It is critical that the percentage of DMSO be controlled and consistent across the plate. […] The High control is with all assay components but no inhibitor, the low control is with all assay components but no enzyme.
(§9) Make 2× detection reagents in Invitrogen TR-FRET detection buffer for final 20 nM Strepavidin-d2, 1 nM Tb^2+-pSer641 antibody (using 20 μl as final volume). 2× detection=40 nM Strepavidin-d2, 2 nM Tb^2+-pSer641 antibody.
(§10) XLFit is used for results which are archived into a database. The data is normalized as a percentage of uninhibited control minus max inhibited controls.

GSK3α = GSK3α (Homo sapiens (Human), UniProt P49840); assay: GSK3 alpha biochemical assay (TR-FRET); conditions: GSK3α TR-FRET BIOCHEMICAL (TR-FRET) GMean IC50, 4 μM ATP (Km), 100 min at room temperature
Procedure: as §6, §7, §8, §9, §10

[1] = test system: Δ7 SMA KO mouse model of SMA; conditions: transgenic Δ7 SMA KO mouse model; cited from earlier work
[2] = test system: SMA patient-derived fibroblast cells; conditions: Western blot; cited from earlier work
[3] = test system: oxidative stress-induced neurodegeneration; conditions: cited from earlier work
GSK3 = conditions: cited from earlier work
Plasma stability, mouse = assay type: in vitro ADME, mouse (CD-1)
Procedure: (§1) Stability of compound in plasma was tested in duplicate by incubating compound at 5 μM for 5 hours at 37° C. Compound level at 5 hours was compared to level at 0 hours, and percent remaining was calculated. Binding to plasma proteins was tested in duplicate by incubating compound in plasma at 5 μM for 5 hours at 37° C. in the Rapid Equilibrium Dialysis (RED) Device. Compound level in plasma compartment was compared to compound level in buffer compartment to calculate percent bound. Order by selecting Plasma Stability and Plasma Protein Binding in Prometheus, checking boxes for desired species.
(§2) Available species: human, mouse (CD-1), and rat (Sprague-Dawley). Compound requirements: 15 μL of a 10 mM DMSO solution. Incubation time: 5 hours at 37° C. Test Concentration: 5 μM.

Plasma stability, human = assay type: in vitro ADME
Procedure: as §1, §2

[4] = Plasma protein binding (RED), mouse; assay type: in vitro ADME, mouse (CD-1); conditions: CD-1, 5 hours at 37° C., read-out: Plasma Protein Binding (Mouse, % bound) (converted)
[5] = Plasma protein binding (RED), human; assay type: in vitro ADME; conditions: 5 hours at 37° C., read-out: Plasma Protein Binding (Human, % bound) (converted)
Procedure: as §1, §2

[6] = Liver microsomal stability, mouse; assay type: in vitro ADME, mouse (CD-1)
Procedure: (§3) Stability of compound in liver microsomes was tested in duplicate by incubating compound at 1 μM for 60 minutes at 37° C. Compound level at 60 minutes was compared to level at 0 minutes, and percent remaining was calculated. Order by selecting Microsomal Stability in Prometheus, checking boxes for desired species.
(§4) Available species: human, mouse (CD-1), and rat (Sprague-Dawley). Compound requirements: 5 μL of a 10 mM DMSO solution. Incubation time: 60 minutes at 37° C. Test Concentration: 1 μM.
(§5) Microsomes with NADPH without compound-matrix interference. Microsomes plus compound without NADPH-non-enzymatic instability.

[7] = Liver microsomal stability, human; assay type: in vitro ADME
Procedure: as §3, §4, §5

Solubility in PBS = conditions: 23 °C, aqueous buffer, thermodynamic from solid
Procedure: (§11) Solubility of compound was tested in triplicate by diluting a 10 mM DMSO solution with PBS. Maximum concentration of compound in solution was 100 μM.
(§12) Solubility of compound was tested in triplicate by drying down a 10 mM DMSO solution and then attempting to reconstitute in 100% PBS. Maximum concentration of compound in solution was 500 μM.
(§13) Compound requirements (1% DMSO in PBS): 30 μL of a 10 mM DMSO solution. Compound requirements (PBS-only): 60 μL of a 10 mM DMSO solution. Equilibration time: 18 hours at room temperature.

physchem = conditions: 23 °C, aqueous buffer, thermodynamic from solid
Procedure: as §11, §12, §13

[8] = mouse plasma, 5 μM, 5 hours at 37° C.
[9] = human plasma, 5 μM, 5 hours at 37° C.

GSK3β, sequence (P49841 whole entry): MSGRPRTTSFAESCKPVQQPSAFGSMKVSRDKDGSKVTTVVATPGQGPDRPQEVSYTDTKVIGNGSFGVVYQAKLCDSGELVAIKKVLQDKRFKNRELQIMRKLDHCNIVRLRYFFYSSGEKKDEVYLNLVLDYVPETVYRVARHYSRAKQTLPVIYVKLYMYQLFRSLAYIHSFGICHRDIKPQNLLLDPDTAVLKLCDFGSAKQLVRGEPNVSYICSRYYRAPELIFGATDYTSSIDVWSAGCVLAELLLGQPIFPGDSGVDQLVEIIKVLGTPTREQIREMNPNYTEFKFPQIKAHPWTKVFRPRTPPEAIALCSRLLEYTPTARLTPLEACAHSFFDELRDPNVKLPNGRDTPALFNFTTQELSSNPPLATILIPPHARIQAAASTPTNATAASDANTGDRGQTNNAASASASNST
GSK3α, sequence (P49840 whole entry): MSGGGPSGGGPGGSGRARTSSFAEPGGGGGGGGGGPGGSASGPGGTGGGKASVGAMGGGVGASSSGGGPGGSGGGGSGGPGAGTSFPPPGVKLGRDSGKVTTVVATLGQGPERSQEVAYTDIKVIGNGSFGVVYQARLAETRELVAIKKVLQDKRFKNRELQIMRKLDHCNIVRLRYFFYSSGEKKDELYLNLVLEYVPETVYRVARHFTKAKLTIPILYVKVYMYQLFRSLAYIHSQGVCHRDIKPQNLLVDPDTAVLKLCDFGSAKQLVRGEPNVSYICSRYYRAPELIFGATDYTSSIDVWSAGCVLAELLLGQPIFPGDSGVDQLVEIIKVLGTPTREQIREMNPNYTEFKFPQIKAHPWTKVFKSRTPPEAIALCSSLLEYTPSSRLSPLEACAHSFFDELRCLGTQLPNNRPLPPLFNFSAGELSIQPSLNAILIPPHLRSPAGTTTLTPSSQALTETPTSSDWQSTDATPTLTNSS

Row | Compound | Plasma Stability (Mouse, % remaining) (Plasma stability, mouse; [8]) [%] | Plasma Stability (Human, % remaining) (Plasma stability, human; [9]) [%] | fraction unbound at 5 h, 5 μM [4] | fraction unbound at 5 h, 5 μM [5] | Mouse Liver Microsomal Stability, % remaining ([6]; 1 μM, 60 minutes at 37° C.) [%] | Human Liver Microsomal Stability, % remaining ([7]; 1 μM, 60 minutes at 37° C.) [%] | solubility thermodynamic at 18 h (Solubility in PBS) [µM] | further results
1 | CCC1(c2ccccc2)C2=C(CC(C)(C)CC2=O)Nc2ncsc21 (single isomer, unassigned) [Compound 1-E2, 9-Ethyl-6,6-dimethyl-9-phenyl-5,6,7,9-tetrahydrothiazolo[4,5-b]quinolin-8(4H)-one] | – | – | – | – | – | – | – | Papp A→B at 120 min, 5 μM (MDR1): 7.67 ×10⁻⁶ cm/s; Papp B→A at 120 min, 5 μM (MDR1): 24.4 ×10⁻⁶ cm/s; efflux ratio at 120 min, 5 μM (MDR1; read-out: MDCK PERMEABILITY (MDR1-MDCK) Mean P. Ratio(B-A/A-B)): 3.2; IC50 (GSK3β): 0.19 µM; IC50 (GSK3α): 0.037 µM
2 | Cn1cc(C2=C(c3coc4ccccc34)C(=O)NC2=O)c2cc(Br)ccc21 [BIP-135] | – | – | – | – | – | – | – | median survival of the mice [1]: prolong the median survival of the mice; SMN protein level [2]: elevate the SMN protein level; neuroprotection [3]: neuroprotective
3 | [Li+] [Li^+, Lithium] | – | – | – | – | – | – | – | IC50 (GSK3): 2000 µM
4 | CC[C@@]1(c2ccccc2)C2=C(CC(C)(C)CC2=O)Nc2ncsc21 [drawing 173] | 100 | 100 | 0.074 | 0.049 | 5.6 | 6.6 | 17 (≈ 5.75 µg/mL) | –
5 | CC[C@@]1(c2cccc(F)c2)C2=C(CC(C)(C)CC2=O)Nc2ncsc21 [drawing 174] | 96.0 | 99.2 | 0.043 | 0.029 | 3.9 | 2.4 | 100 (≈ 35.6 µg/mL) | –
6 | CC[C@@]1(c2cccc(C)c2)C2=C(CC(C)(C)CC2=O)Nc2ncsc21 [drawing 176] | 97.8 | 98.9 | 0.045 | 0.019 | 8.2 | 0.7 | 75 (≈ 26.4 µg/mL) | –
7 | CC[C@@]1(c2ccccc2)C2=C(CC(C)(C)CC2=O)Nc2n[nH]cc21 [drawing 179] | 95.3 | – | 0.212 | – | 93 | 95 | – | solubility thermodynamic at 18 h (physchem): 480 µM (≈ 154 µg/mL)
8 | Cc1c[nH]c(-c2cnc(NCCNc3ccc(C#N)cn3)nc2-c2ccc(Cl)cc2Cl)n1 [drawing 180] | – | – | 0.043 | 0.039 | – | – | – | Plasma Stability (Mouse, % remaining) (Plasma stability, mouse): 97.0%; Plasma Stability (Human, % remaining) (Plasma stability, human): 100%; Mouse Liver Microsomal Stability, % remaining [6]: 4.0%; Human Liver Microsomal Stability, % remaining [7]: 3.0%; solubility thermodynamic at 18 h (physchem): 116 µM (≈ 54 µg/mL)
